# Conditions: not given
SMILES,solubility [mM],logP
O=C(O)COc1ccc(Cl)cc1CO,9.23,
CCOS(=O)(=O)c1ccc2c(c1)C(C)(C)CO2,,2.41
CCCCC(CC)CN1C(=O)C2C3C=CC(C3)C2C1=O (configuration not stated),,3.7
CCOC(=O)Cn1c(=O)sc2cccc(Cl)c21,,2.5
C=CCN(CC=C)C(=O)C(Cl)Cl,,1.84
CCCCCOC(=O)COc1cc(N2C(=O)C3=C(CCCC3)C2=O)c(F)cc1Cl,,4.99
CC(C)C(O)(c1ccc(OC(F)(F)F)cc1)c1cncnc1 (configuration not stated),,3.34
CCOC(=O)CCN(Cc1ccccc1)SN(C)C(=O)O/N=C(/C)SC,,3.43
CCCCN(CC)C(=O)SCCC,,3.83
O=C(NC(=O)c1c(F)cccc1F)Nc1ccc(Cl)c(Oc2ncc(C(F)(F)F)cc2Cl)c1,,5.1
OC(c1ccc(F)cc1)(c1cncnc1)c1ccccc1Cl (configuration not stated),,3.18
S=C([S-])NCCNC(=S)[S-].[Na+].[Na+],780,
CNc1nc(NC(C)C)nc(SC)n1,,2.38
N=C(N)NCCCCCCCCNCCCCCCCCNC(=N)N,2150,
CCOC(=O)c1cn2nc(OP(=S)(OCC)OCC)cc2nc1C,,3.8
CCN(CC)C(=O)SCc1ccccc1Cl,,3.43
CCCOC(=O)c1ccc(C(=O)OCCC)nc1,,3.57
CCCN(CCC)C(=O)SCc1ccccc1,,4.65
N#CC(=NOCC1OCCO1)c1ccccc1,,2.76
CC(Oc1ccc(Oc2ccc(Cl)cc2Cl)cc1)C(=O)O (configuration not stated),,4.58
N#Cc1c[nH]cc1-c1cccc(Cl)c1Cl,,3.86
CS(=O)(=O)NC(=O)c1cc(Oc2ccc(C(F)(F)F)cc2Cl)ccc1[N+](=O)[O-],,2.9
COCCOc1ccccc1S(=O)(=O)N=C(O)N=c1nc(OC)[nH]c(OC)n1,,2.04

SMILES,solubility [mM],logP
CC1(C)CON(Cc2ccccc2Cl)C1=O,,2.5
COCC(C)N(C(=O)CCl)c1c(C)csc1C (configuration not stated),,2.15
CC(Oc1ccc(Oc2cnc3cc(Cl)ccc3n2)cc1)C(=O)OCC1CCCO1 (configuration not stated),,4.32
Cc1nc(N(C)C)nc(OC(=O)N(C)C)c1C,,1.7
COP(=S)(OC)SCC(=O)N(c1ccc(Cl)cc1)C(C)C,,3.81
CN(C)C(=O)Nc1cc(C(C)(C)C)on1,,1.98
CN(C)C(=O)SCCCCOc1ccccc1,,3.28
Clc1ccccc1-c1nnc(-c2ccccc2Cl)nn1,,3.1
O=C(NC(=O)c1c(F)cccc1F)Nc1cc(Cl)c(Oc2ncc(C(F)(F)F)cc2Cl)c(Cl)c1,,5.8
Cc1cnc(C2=NC(=O)C(C)(C(C)C)N2)c(C(=O)O)c1 (configuration not stated),,2.47
O=C1C(Cl)C(CCl)CN1c1cccc(C(F)(F)F)c1 (configuration not stated),,3.36
O=C1c2ccccc2C(=O)C1C(=O)C(c1ccccc1)c1ccccc1,0.000881,
COc1ccc(C(=CC(=O)N2CCOCC2)c2ccc(Cl)cc2)cc1OC,,2.68
CC1(C)CNC(=NN=C(/C=C/c2ccc(C(F)(F)F)cc2)/C=C/c2ccc(C(F)(F)F)cc2)NC1,,2.31
CCOC(=O)CCN(SN(C)C(=O)Oc1cccc2c1OC(C)(C)C2)C(C)C,,4.3
CCOP(=S)(NC(C)CC)Oc1cc(C)ccc1[N+](=O)[O-] (configuration not stated),,4.62
C#CCC1=C(C)C(OC(=O)C2C(C=C(C)C)C2(C)C)CC1=O (configuration not stated),,4.49
COc1ccc(C(O)(c2cncnc2)C2CC2)cc1 (configuration not stated),,1.91
CCCSP(=O)(OCC)SCCC,,3.59
CCOc1ccc(C(C)(C)COCc2cccc(Oc3ccccc3)c2)cc1,,7.05
CCC1OCC(COc2ccc(Oc3ccccc3)cc2)O1 (configuration not stated),,4.35
COC(=O)Nc1cccc(OC(=O)Nc2cccc(C)c2)c1,,3.59
CCCCOC(=O)C(C)Oc1ccc(Oc2ccc(C(F)(F)F)cn2)cc1 (configuration not stated),,4.5

SMILES,solubility [mM],logP
CCCCCCCCSCCO,,3.64
C=CCNC(=O)CN(CC=C)C(=O)C(Cl)Cl,,1
CC1(C)C(C=C(Cl)Cl)C1C(=O)OC(C#N)c1ccc(F)c(Oc2ccccc2)c1 (configuration not stated),,5.95
CN(C)C(O)=Nc1ccc(-n2nc(C(C)(C)C)oc2=O)c(Cl)c1,,2.51
Fc1ccc(C2(Cn3cncn3)OC2c2ccccc2Cl)cc1 (configuration not stated),,3.44
O=C1CCc2cccc3c2N1CC3,,1.57
CCOP(=S)(OCC)OP(=S)(OCC)OCC,,3.99
CC(Oc1ccc(Oc2ncc(Cl)cc2Cl)cc1)C(=O)N1CCCO1 (configuration not stated),,3.36
CC(C)(C)c1ccc(CCOc2ncnc3ccccc23)cc1,,5.51
CC(C)C1CCC(Cc2ccc(Cl)cc2)C1(O)Cn1cncn1 (configuration not stated),,4.21
C=C(C)CN(CC)c1c([N+](=O)[O-])cc(C(F)(F)F)cc1[N+](=O)[O-],,5.11
CCOCN(C(=O)CCl)c1c(C)cccc1CC,,3.03
COP(=S)(OC)Oc1c(Cl)cc(C)cc1Cl,,4.56
CC1COc2ccccc2N1C(=O)C(Cl)Cl (configuration not stated),,2.7
CCCSP(=S)(OCC)Oc1ccc(Cl)cc1Cl (configuration not stated),,5.67
CCOP(=S)(OCC)OC(Cl)C(Cl)(Cl)Cl (configuration not stated),,4.59
CC1=C(C)S(=O)(=O)CCS1(=O)=O,,-0.17
O=C(NC(=O)c1c(F)cccc1F)Nc1ccc(CO/N=C(/c2ccc(Cl)cc2)C2CC2)cc1,,6.97
CCOCn1c(-c2ccc(Cl)cc2)c(C#N)c(Br)c1C(F)(F)F,,4.83
CCOCCOC(=O)C(C)Oc1ccc(Oc2ncc(C(F)(F)F)cc2Cl)cc1 (configuration not stated),,4.33
CCOC(=O)CCCOc1ccc(Cl)cc1C,,4.26

# Same assay, conditions: 20 °C
row,SMILES,solubility [mM]
1,O=C(O)CCCc1c[nH]c2ccccc12,1.23
2,CNC(=O)O/N=C(\C)C(C)S(C)(=O)=O (configuration not stated),940
3,CC(C)C(O)(c1ccc(OC(F)(F)F)cc1)c1cncnc1 (configuration not stated),0.365
4,CCCSP(=O)(OCC)Oc1cnn(-c2ccc(Cl)cc2)c1 (configuration not stated),0.0915
5,CC#Cc1cc(C)nc(Nc2ccccc2)n1,0.0139
6,CCOP(=O)(Oc1ccc(Cl)cc1Cl)Oc1ccc(Cl)cc1Cl,0.00168
7,CCCCOC(=O)C1(O)c2ccccc2-c2ccccc21,0.129
8,COC(=O)/C(C)=C/OP(=S)(OC)OC,1.67
9,CCCN(CCC)C(=O)SCc1ccccc1,0.0525
10,CN(C)S(=O)(=O)N(SC(F)(Cl)Cl)c1ccccc1,0.0039
11,CCC(C)c1ccccc1OC(=O)NC (configuration not stated),3.18
12,"CC(C)(C)[C@@H](O)[C@@H](Cc1ccc(Cl)cc1)n1cncn1 (single isomer, unassigned)",0.103
13,CSc1nnc(C(C)(C)C)c(=O)n1N,5.28
14,COc1cccc(N(C)C(=S)Oc2cccc(C(C)(C)C)c2)n1,0.000968
15,CCN(C(=O)SCc1ccccc1)C(C)C(C)C (configuration not stated),0.0185
16,COP(=O)(OC)O/C(=C\Cl)c1ccc(Cl)cc1Cl,0.392
17,NCCO.O=C(Nc1ccc([N+](=O)[O-])cc1Cl)c1cc(Cl)ccc1O,0.258
18,CCNC(=O)C(C)OC(=O)Nc1ccccc1 (configuration not stated),14.8
19,Cc1cnc2c(C(=O)O)c(Cl)ccc2c1,1.01
20,CN(C(O)=NC(C)(C)c1ccccc1)c1ccccc1,0.447
21,CNC(=O)Oc1ccc(C)c(C)c1,7.25
22,CC(Oc1ccc(Oc2cnc3cc(Cl)ccc3n2)cc1)C(=O)O (configuration not stated),0.00087
23,C=CCNC(=O)CN(CC=C)C(=O)C(Cl)Cl,91.3
24,CCCCCCC(C)OC(=O)COc1nc(F)c(Cl)c(N)c1Cl (configuration not stated),0.000245
25,Cc1ccccc1C(=O)Nc1cccc(OC(C)C)c1,0.0472
26,CCOC(=O)c1cnn(C)c1S(=O)(=O)NC(=O)Nc1nc(OC)cc(OC)n1,0.035
27,Cc1nn(C)c(OCC(=O)c2ccccc2)c1C(=O)c1ccc(Cl)cc1Cl,2.23
28,CC(C)(C)c1ccc(CCOc2ncnc3ccccc23)cc1,0.000718
29,CNC(=O)Oc1ccccc1OC(CCl)OC (configuration not stated),5.01
30,CC1COc2ccccc2N1C(=O)C(Cl)Cl (configuration not stated),0.0769

# Same assay, conditions: 22 °C
row,SMILES,solubility [mM]
1,CC(C)c1ccc(NC(=O)N(C)C)cc1,0.291

# Same assay, conditions: 23 °C
row,SMILES,solubility [mM]
1,CCN(CC)C(=O)SCc1ccccc1Cl,0.0931

# Same assay, conditions: 25 °C
row,SMILES,solubility [mM]
1,CCCN(CCC)c1c([N+](=O)[O-])cc(C(F)(F)F)c(N)c1[N+](=O)[O-],3.71e-05
2,CON(C)C(=O)Nc1ccc(Oc2ccc3c(c2)OC(C)(OC)CC3(C)C)cc1 (configuration not stated),0.000999
3,CC(C)C1(C)N=C(c2ncccc2C(=O)O)NC1=O (configuration not stated),43.3
4,CC(C)(C)C(O)/C(=C\c1ccc(Cl)cc1Cl)n1cncn1 (configuration not stated),0.0123
5,CCCCCOC(=O)COc1cc(N2C(=O)C3=C(CCCC3)C2=O)c(F)cc1Cl,0.000446
6,Cc1ccc(C(=O)COc2c(C(=O)c3ccc(Cl)c(C)c3Cl)c(C)nn2C)cc1,0.000301
7,CCOC(=O)C1(C)OC(=O)N(c2cc(Cl)cc(Cl)c2)C1=O (configuration not stated),0.0241
8,COc1ccc(NC(=O)N(C)C)cc1Cl,2.62
9,O=C1OCc2c(Cl)c(Cl)c(Cl)c(Cl)c21,0.00919
10,CN(C)NC(=O)CCC(=O)O,624
11,Oc1ccccc1-c1ccccc1,4.11
12,O=C(O)CCCOc1ccc(Cl)cc1Cl,0.213
13,CCCCN(CCCC)SN(C)C(=O)Oc1cccc2c1OC(C)(C)C2,0.000788
14,N#Cc1c[nH]cc1-c1cccc(Cl)c1Cl,0.0202
15,COCC(C)N(C(=O)CCl)c1c(C)csc1C (configuration not stated),4.35
16,CC(Oc1ccc(Oc2cnc3cc(Cl)ccc3n2)cc1)C(=O)OCC1CCCO1 (configuration not stated),0.00933
17,CCOP(=O)(N=C1SCC(C)S1)OCC (configuration not stated),0.212

row,SMILES,solubility [mM]
1,O=c1ccc(=O)[nH][nH]1,53.5
2,Cc1cnc(C2=NC(=O)C(C)(C(C)C)N2)c(C(=O)O)c1 (configuration not stated),8.11
3,CC1(C)CNC(=NN=C(/C=C/c2ccc(C(F)(F)F)cc2)/C=C/c2ccc(C(F)(F)F)cc2)NC1,1.21e-05
4,CCOP(=S)(NC(C)CC)Oc1cc(C)ccc1[N+](=O)[O-] (configuration not stated),0.0169
5,O=C(O)c1cc(Oc2ccc(C(F)(F)F)cc2Cl)ccc1[N+](=O)[O-],0.332
6,C#CCC1=C(C)C(OC(=O)C2C(C=C(C)C)C2(C)C)CC1=O (configuration not stated),0.0266
7,CCC1OCC(COc2ccc(Oc3ccccc3)cc2)O1 (configuration not stated),0.0163
8,Nc1c(Cl)c(Cl)nc(C(=O)O)c1Cl,1.78
9,Cc1c(Cl)ccc(OC(C)C(O)=Nc2ccccc2)c1Cl (configuration not stated),9.87e-05
10,CC(Oc1ccc(Oc2ncc(Cl)cc2Cl)cc1)C(=O)N1CCCO1 (configuration not stated),0.0256
11,CCOc1cc(Oc2ccc(C(F)(F)F)cc2Cl)ccc1[N+](=O)[O-],0.000298
12,CCn1cc(C(=O)O)c(=O)c2cc3c(cc21)OCO3,0.0122
13,CCCCOC(=O)N(C)SN(C)C(=O)Oc1cccc2c1OC(C)(C)C2,0.0274
14,COP(=S)(OC)Oc1c(Cl)cc(C)cc1Cl,0.0022
15,CC1=C(C)S(=O)(=O)CCS1(=O)=O,21.9
16,O=C(OCc1ccccc1)c1sc(Cl)nc1C(F)(F)F,0.00155

# Same assay, conditions: 27 °C
row,SMILES,solubility [mM]
1,CN(C)C(=O)C(c1ccccc1)c1ccccc1,1.09
2,CC(Oc1ccc2ccccc2c1)C(O)=Nc1ccccc1 (configuration not stated),0.00257
3,C/C=C\COCN(C(=O)CCl)c1c(CC)cccc1CC,0.0936

# Same assay, conditions: 30 °C
row,SMILES,solubility [mM]
1,O=C(Nc1ccc(Cl)cc1C(O)c1ccccc1)c1ccncc1 (configuration not stated),0.00295

# Same assay, conditions: pH 5.0; 25 °C
row,SMILES,solubility [mM]
1,COc1cc(OC)nc(N=C(O)NS(=O)(=O)Nc2ccccc2C(=O)C2CC2)n1,0.000403

# Same assay, conditions: pH 6.4; 21 °C
row,SMILES,solubility [mM]
1,O=C(Nc1ccccc1)Nc1ccnc(Cl)c1,0.157

# Same assay, conditions: pH 6.5; 23 °C
row,SMILES,solubility [mM]
1,CCCCOC(=O)C(C)Oc1ccc(Oc2ccc(C(F)(F)F)cn2)cc1 (configuration not stated),0.0031

# Same assay, conditions: pH 7.0; 20 °C
row,SMILES,solubility [mM]
1,OC(Cn1cncn1)(c1ccc(F)cc1)c1ccccc1F (configuration not stated),0.431

# Same assay, conditions: pH 7.0; 25 °C
row,SMILES,solubility [mM]
1,OC(c1ccc(F)cc1)(c1cncnc1)c1ccccc1Cl (configuration not stated),0.0826

# Same assay, conditions: pH 9.0; 20 °C
row,SMILES,solubility [mM]
1,Cc1ccc(N=c2sccn2C)c(C)c1,0.687
